Measurements published in ChEMBL document CHEMBL1201862, “PubChem BioAssay data set” (2004).
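Compound exposure: 48 hours, 5 concentrations, 96-well plates. GI50 marks 50% less growth.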 Active and inactive are the calls of the source. Rule as the data show it: active = GI50 up to about 1.1 µM and inactive = higher.

What was measured:
Assay in all cases: growth of human tumour cells (NCI), 48 h
SNB-75 = tested on: SNB-75
OVCAR-3 = tested on: OVCAR-3
SF-539 = tested on: SF-539
SNB-19 = tested on: SNB-19
NCI-H23 = tested on: NCI-H23
KM12 = tested on: KM12
HCC 2998 = tested on: HCC 2998
TK-10 = tested on: TK-10
SK-OV-3 = tested on: SK-OV-3
M14 = tested on: M14
MOLT-4 = tested on: MOLT-4
MDA-MB-231 = tested on: MDA-MB-231
T47D = tested on: T47D
U-251 = tested on: U-251
ACHN = tested on: ACHN
OVCAR-4 = tested on: OVCAR-4
786-0 = tested on: 786-0
RPMI-8226 = tested on: RPMI-8226
SK-MEL-28 = tested on: SK-MEL-28
SR = tested on: SR

Measured: GI50

CC1=C(C(=O)NC(C)(C)C)CC(C(=O)NC(C)(C)C)C(C)N1 (configuration not stated)
inactive: SNB-75 40.4 µM | OVCAR-3 > 100 µM | SF-539 > 100 µM | SNB-19 85.1 µM | NCI-H23 > 100 µM | KM12 > 100 µM | HCC 2998 > 100 µM | TK-10 > 100 µM | SK-OV-3 > 100 µM | M14 > 100 µM | MOLT-4 > 100 µM | MDA-MB-231 > 100 µM | T47D > 100 µM | U-251 > 100 µM | ACHN > 100 µM | OVCAR-4 > 100 µM | 786-0 > 100 µM | RPMI-8226 > 100 µM

CCOC(=O)C1=CC(C)(C(=O)OCC)Nc2c(nc(OC)n(C)c2=O)N1 (configuration not stated)
inactive: SNB-75 > 10 µM | OVCAR-3 > 10 µM | SF-539 > 10 µM | SNB-19 > 10 µM | NCI-H23 > 10 µM | KM12 > 10 µM | HCC 2998 > 10 µM | TK-10 > 10 µM | SK-OV-3 > 10 µM | M14 > 10 µM | MOLT-4 > 10 µM | MDA-MB-231 > 10 µM | T47D > 10 µM | U-251 > 10 µM | ACHN > 10 µM | OVCAR-4 > 10 µM | 786-0 > 10 µM | SK-MEL-28 > 10 µM | RPMI-8226 > 10 µM

CC1=C(C(=O)Nc2ccc(Cl)c(C(=O)OC(C)C)c2)SCCO1
inactive: SNB-75 75.9 µM | OVCAR-3 86.1 µM | SF-539 > 89.3 µM | SNB-19 70.5 µM | NCI-H23 69.2 µM | KM12 80.9 µM | HCC 2998 54.8 µM | TK-10 > 100 µM | SK-OV-3 > 81.1 µM | M14 > 100 µM | MOLT-4 40.4 µM | MDA-MB-231 > 100 µM | T47D 24.2 µM | U-251 55.7 µM | ACHN > 100 µM | OVCAR-4 56.8 µM | 786-0 > 100 µM | SK-MEL-28 74.6 µM | RPMI-8226 23.3 µM

Cc1ccccc1C(=N)c1ccccc1Cc1cccc2ccccc12
inactive: OVCAR-3 13.1 µM | SF-539 17.6 µM | SNB-19 56.1 µM | NCI-H23 24.5 µM | KM12 16.6 µM | HCC 2998 17.5 µM | TK-10 59.3 µM | SK-OV-3 26.3 µM | SR 15.9 µM | M14 34.2 µM | MOLT-4 14 µM | MDA-MB-231 36.4 µM | T47D 14.1 µM | U-251 18.2 µM | ACHN 30.4 µM | OVCAR-4 28.4 µM | 786-0 19.4 µM | SK-MEL-28 20.7 µM | RPMI-8226 7.43 µM

CCOC(=O)/C=C(/C)Nc1nc2c(c(C(=O)OC)c1C#N)CCCC2
inactive: SNB-19 > 100 µM | NCI-H23 > 100 µM | KM12 > 100 µM | HCC 2998 > 100 µM | TK-10 > 100 µM | SK-OV-3 > 100 µM | SR > 100 µM | M14 > 100 µM | MOLT-4 63 µM | MDA-MB-231 > 100 µM | T47D > 100 µM | U-251 > 100 µM | ACHN > 100 µM | OVCAR-4 44.7 µM | 786-0 > 100 µM | SK-MEL-28 > 100 µM | RPMI-8226 > 100 µM

COC1(OC)N=C(N)C2(C#N)C(c3ccccc3)NC3=C(CCC3)C12C#N (configuration not stated)
inactive: SNB-19 > 100 µM | NCI-H23 > 100 µM | KM12 > 100 µM | HCC 2998 > 100 µM | TK-10 > 100 µM | SK-OV-3 > 100 µM | SR > 100 µM | M14 > 100 µM | MOLT-4 > 100 µM | MDA-MB-231 > 100 µM | T47D > 100 µM | U-251 > 100 µM | ACHN > 100 µM | OVCAR-4 > 100 µM | 786-0 > 100 µM | SK-MEL-28 > 100 µM | RPMI-8226 > 100 µM

O=c1nc2n(cc1/C=C\Br)C1CC(O)C(CO2)O1 (configuration not stated)
inactive: SNB-75 > 100 µM | OVCAR-3 > 100 µM | SF-539 38.4 µM | SNB-19 > 100 µM | NCI-H23 > 100 µM | KM12 > 100 µM | HCC 2998 > 100 µM | TK-10 > 100 µM | SK-OV-3 > 100 µM | MOLT-4 > 100 µM | MDA-MB-231 > 100 µM | T47D > 100 µM | U-251 > 100 µM | ACHN > 100 µM | OVCAR-4 > 100 µM | 786-0 > 100 µM | SK-MEL-28 > 100 µM | RPMI-8226 > 100 µM

CSc1ncc2c(n1)-c1ccccc1OC2N1CCCC1 (configuration not stated)
inactive: SNB-75 41.7 µM | OVCAR-3 47.4 µM | SF-539 84.5 µM | SNB-19 > 100 µM | NCI-H23 > 100 µM | KM12 > 100 µM | TK-10 44.1 µM | SK-OV-3 > 100 µM | SR > 100 µM | M14 > 100 µM | MOLT-4 79.8 µM | MDA-MB-231 > 100 µM | T47D 35.8 µM | U-251 68.5 µM | ACHN 60.8 µM | OVCAR-4 21 µM | 786-0 > 100 µM | RPMI-8226 50.9 µM

O=C(N/N=C/c1ccc(Cl)cc1)c1cc(I)cc(I)c1O
inactive: SNB-75 94.2 µM | OVCAR-3 > 100 µM | SF-539 > 100 µM | SNB-19 > 100 µM | NCI-H23 > 100 µM | KM12 > 100 µM | TK-10 > 100 µM | SK-OV-3 > 100 µM | SR 76.6 µM | M14 > 100 µM | MOLT-4 > 100 µM | MDA-MB-231 > 100 µM | T47D > 100 µM | U-251 > 100 µM | ACHN > 100 µM | OVCAR-4 > 100 µM | 786-0 > 100 µM | SK-MEL-28 > 100 µM | RPMI-8226 > 100 µM

CNC1NC(=O)c2ccccc2N1Cc1ccc(F)cc1 (configuration not stated)
inactive: SNB-75 > 100 µM | OVCAR-3 > 100 µM | SF-539 > 100 µM | SNB-19 > 100 µM | NCI-H23 > 100 µM | KM12 > 100 µM | HCC 2998 > 100 µM | TK-10 > 100 µM | SK-OV-3 > 100 µM | M14 > 100 µM | MOLT-4 > 100 µM | MDA-MB-231 > 100 µM | T47D > 100 µM | U-251 > 100 µM | ACHN > 100 µM | OVCAR-4 > 100 µM | 786-0 > 100 µM | SK-MEL-28 > 100 µM | RPMI-8226 > 100 µM

CC1=CC(C2/C(=N/O)C=C(C)CC2(C)C)C(O)C(C)(C)C1 (configuration not stated)
inactive: SNB-75 14.8 µM | OVCAR-3 11.1 µM | SF-539 24 µM | SNB-19 15.8 µM | NCI-H23 16.2 µM | KM12 15.9 µM | HCC 2998 14.1 µM | TK-10 19.1 µM | SK-OV-3 17.9 µM | M14 15.1 µM | MOLT-4 13.5 µM | MDA-MB-231 17.3 µM | T47D 12.8 µM | U-251 15.7 µM | ACHN 18.9 µM | OVCAR-4 15 µM | 786-0 17.4 µM | SK-MEL-28 15.7 µM | RPMI-8226 14 µM

CN(C)c1ccc(/C=N/NC(=S)Nc2ccccc2)cc1
inactive: SNB-75 > 100 µM | OVCAR-3 > 100 µM | SF-539 > 100 µM | SNB-19 > 100 µM | NCI-H23 > 100 µM | KM12 > 100 µM | TK-10 > 100 µM | SK-OV-3 > 100 µM | SR > 100 µM | M14 > 100 µM | MOLT-4 > 100 µM | MDA-MB-231 > 100 µM | T47D > 100 µM | U-251 > 100 µM | ACHN > 100 µM | OVCAR-4 > 100 µM | 786-0 > 100 µM | SK-MEL-28 > 100 µM | RPMI-8226 > 100 µM

O=C(Nc1sccc1S(=O)(=O)c1ccccc1)c1ccccc1
inactive: SNB-75 > 100 µM | OVCAR-3 99.5 µM | SF-539 > 100 µM | SNB-19 > 100 µM | NCI-H23 > 100 µM | KM12 > 100 µM | HCC 2998 > 100 µM | TK-10 > 100 µM | SK-OV-3 > 100 µM | M14 > 100 µM | MOLT-4 > 100 µM | MDA-MB-231 > 36.1 µM | T47D > 100 µM | U-251 > 100 µM | ACHN > 100 µM | OVCAR-4 > 57.9 µM | 786-0 > 100 µM | SK-MEL-28 > 100 µM | RPMI-8226 > 100 µM

COc1ccc(OC)c2c1C1CCC(=O)N1CN2C(C)=O (configuration not stated)
inactive: SNB-75 > 100 µM | OVCAR-3 > 100 µM | SF-539 > 100 µM | SNB-19 > 100 µM | NCI-H23 > 100 µM | KM12 > 100 µM | HCC 2998 > 100 µM | TK-10 > 100 µM | SK-OV-3 > 100 µM | M14 > 100 µM | MOLT-4 > 100 µM | MDA-MB-231 > 100 µM | T47D > 100 µM | U-251 > 100 µM | ACHN > 100 µM | OVCAR-4 > 100 µM | 786-0 > 100 µM | SK-MEL-28 > 100 µM | RPMI-8226 > 100 µM

Cc1nc(-c2ccc([N+](=O)[O-])cc2)cn2c1nc1ccccc12
inactive: SNB-75 24.6 µM | OVCAR-3 > 100 µM | SF-539 > 100 µM | SNB-19 65.8 µM | NCI-H23 > 100 µM | KM12 > 100 µM | TK-10 97.5 µM | SK-OV-3 18.9 µM | SR > 100 µM | M14 70.3 µM | MOLT-4 > 100 µM | MDA-MB-231 > 100 µM | T47D 8.81 µM | U-251 40.2 µM | OVCAR-4 > 100 µM | 786-0 71 µM | SK-MEL-28 > 100 µM | RPMI-8226 > 100 µM
